# Target: T1, SHMT1-PEMT complex (Mus musculus, UniProt P50431+Q61907)
# T1 construct: native SHMT1-PEMT complex, co-immunoprecipitate / NP-40 lysate of mouse primary astrocytes; full length, untagged; direct SHMT1-PEMT contact not proven
# T1 sequence (P50431 1-478): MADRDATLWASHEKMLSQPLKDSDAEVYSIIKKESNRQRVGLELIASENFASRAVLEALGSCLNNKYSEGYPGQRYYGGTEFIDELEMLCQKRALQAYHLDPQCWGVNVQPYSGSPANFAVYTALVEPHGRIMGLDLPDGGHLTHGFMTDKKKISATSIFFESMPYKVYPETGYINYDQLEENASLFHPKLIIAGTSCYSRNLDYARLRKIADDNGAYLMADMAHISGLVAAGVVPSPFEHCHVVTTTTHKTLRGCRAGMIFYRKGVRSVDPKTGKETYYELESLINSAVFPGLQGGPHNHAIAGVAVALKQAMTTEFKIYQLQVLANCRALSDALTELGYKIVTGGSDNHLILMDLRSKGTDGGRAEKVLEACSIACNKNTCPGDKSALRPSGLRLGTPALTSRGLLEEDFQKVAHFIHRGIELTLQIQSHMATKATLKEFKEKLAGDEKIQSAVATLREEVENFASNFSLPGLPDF
# T1 sequence (Q61907 1-199): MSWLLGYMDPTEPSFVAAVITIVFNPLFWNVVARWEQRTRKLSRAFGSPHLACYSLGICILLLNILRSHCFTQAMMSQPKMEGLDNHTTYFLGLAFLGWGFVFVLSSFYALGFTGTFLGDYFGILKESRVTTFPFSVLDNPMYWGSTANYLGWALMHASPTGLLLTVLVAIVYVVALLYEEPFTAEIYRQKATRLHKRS
# Test: CETSA and DARTS of co-IP samples, Western blot
# Assay type: biochemical
# Conditions: 10 µM isoorientin; astrocytes with MPP+ 24 h; heating at 37-67 °C 3 min; protease K digestion 1:400-1:3200; either chain may hold the compound
compound,measurement,value
"O=c1cc(-c2ccc(O)c(O)c2)oc2cc(O)c([C@@H]3O[C@H](CO)[C@@H](O)[C@H](O)[C@H]3O)c(O)c12 [TMA0698, Isoorientin]","CETSA and DARTS of co-IP samples, Western blot",we found that Iso significantly promoted SHMT1 and PEMT protein stability

# Source: publication PMC12866788, “Alternative Pathway for Methyl Supply through the Coupling of SHMT1 and PEMT to Maintain Astrocytic Homeostasis in Parkinson's Disease” (Advanced Science, 2025)
